# pIC50: −log10 of the molar value. Read-outs that look alike come from different tables or passages of the source.
# Experiments:
# CD-1 female mice = assay: LPA challenge with plasma histamine evaluation (acute in vivo histamine assay); design: species or system mouse; details: 3 mg/kg dose; for histamine (change of plasma histamine after LPA challenge): CD-1 mice, p.o. 2 hours prior to LPA challenge
# Description: LPA Challenge with Plasma Histamine Evaluation.
# Compound is dosed orally p.o. 2 hours to CD-1 female mice prior to the LPA challenge. The mice are then dosed via tail vein (IV) with 0.15 mL of LPA in 0.1% BSA/PBS ([…]). Exactly 2 minutes following the LPA challenge, the mice are euthanized by decapitation and the trunk blood is collected. These samples are collectively centrifuged and individual 75 μL samples are frozen at −20° C. until the time of the histamine assay.
# The plasma histamine analysis was run by standard EIA (Enzyme Immunoassay) methods. Plasma samples were thawed and diluted 1:30 in 0.1% BSA in PBS. The EIA protocol for histamine analysis as outlined by the manufacturer was followed (Histamine EIA, Oxford Biomedical Research, EA #31).
# The LPA used in the assay is formulated as follows: LPA (1-oleoyl-2-hydroxy-sn-glycero-3-phosphate (sodium salt), 857130P, Avanti Polar Lipids) is prepared in 0.1% BSA/PBS for total concentration of 2 μg/μL. 13 mg of LPA is weighed and 6.5 mL 0.1% BSA added, vortexed and sonicated for ˜1 hour until a clear solution is achieved.
# human LPA1 = target: T1, human LPA1 (Homo sapiens, UniProt Q92633); assay: LPA1 functional antagonist assay (LPA-induced calcium flux); format: cell-based; details: read-out: hLPA1 IC50
# T1 construct: expressed in transfected cells; host or cells: Chinese hamster ovary (CHO) cells
# In short: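 CHO cells overexpressing human LPA1, loaded with calcium dye 30 min at 37° C, were preincubated 20 min at room temperature with compound (0.08 nM–5 μM, 0.5% DMSO) in HBSS/20 mM HEPES/0.1% fatty acid-free BSA.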
# [1] = test system: human foetal lung fibroblasts; details: cited from earlier work
# [2] = test system: mouse epithelial renal cell line, MCT; details: MCT cells, co-treatment with LPA; cited from earlier work
# UUO mice = UUO mice treated with the antagonist; cited from earlier work
# [3] = test system: pancreatic cancer cell lines; details: cited from earlier work
# nerve-injured mice = details: pretreatment; cited from earlier work
# [4] = CHO cells overexpressing human LPA1, inhibition of calcium flux induced by 10 nM LPA
# T1 sequence (Q92633 whole entry): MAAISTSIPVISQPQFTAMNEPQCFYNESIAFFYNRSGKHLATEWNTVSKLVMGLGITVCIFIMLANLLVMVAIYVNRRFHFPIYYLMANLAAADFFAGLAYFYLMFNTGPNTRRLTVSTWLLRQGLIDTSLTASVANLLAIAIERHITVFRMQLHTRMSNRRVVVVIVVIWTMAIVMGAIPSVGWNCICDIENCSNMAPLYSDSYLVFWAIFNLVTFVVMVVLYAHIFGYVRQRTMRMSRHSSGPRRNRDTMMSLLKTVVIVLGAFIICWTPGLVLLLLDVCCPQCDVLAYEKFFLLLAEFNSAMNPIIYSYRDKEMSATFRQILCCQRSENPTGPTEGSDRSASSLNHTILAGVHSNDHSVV
pIC50 (human LPA1),pIC50 (human LPA1; [4]),SMILES,further results
–,–,"Cc1nc(-c2nnn(C)c2COC(=O)N(C)C2CCCC2)ccc1O[C@H]1CCC[C@H](C(=O)O)C1 [Example 1, (1S,3S)-3-((6-(5-(((cyclopentyl(methyl)carbamoyl)oxy)methyl)-1-methyl-1H-1,2,3-triazol-4-yl)-2-methylpyridin-3-yl)oxy)cyclohexane-1-carboxylic Acid]",histamine (change of plasma histamine after LPA challenge) (CD-1 female mice): −97%
–,–,"CN(C(=O)OCc1c(-c2ccc(O[C@H]3CCC[C@H](C(=O)O)C3)cc2)nnn1C)C1CCCC1 [Example 5, (1S,3S)-3-(4-(5-(((Cyclopentyl(methyl)carbamoyl)oxy)methyl)-1-methyl-1H-1,2,3-triazol-4-yl)phenoxy)cyclohexanecarboxylic acid]",histamine (change of plasma histamine after LPA challenge) (CD-1 female mice): −90%
7.62,–,"C[C@H](C1CC1)N(C)C(=O)OCc1c(-c2ccc(O[C@H]3CCC[C@H](C(=O)O)C3)cc2)nnn1C [Example 51, (1S,3S)-3-(4-(5-(((((R)-1-cyclopropylethyl)(methyl)carbamoyl)oxy)methyl)-1-methyl-1H-1,2,3-triazol-4-yl)phenoxy)cyclohexane-1-carboxylic acid]",In vivo acute histamine assay: % histamine (CD-1 female mice): −73%
–,–,Cc1noc(-c2ccc(CSCCC(=O)O)cc2)c1NC(=O)OC(C)c1ccccc1Cl (stereo not shown) [Ki16425],chemotaxis of human foetal lung fibroblasts induced by BAL from IPF patients [1]: blocked; LPA-induced increase in expression of CTGF [2]: almost completely suppressed; development of renal fibrosis in UUO mice (UUO mice): closely resembled the profile of LPA1 (−/−) mice; LPA-induced and ascites-induced invasion activity ([3]; highly peritoneal metastatic pancreatic cancer cell line): blocked; in vitro migration in response to LPA and peritoneal fluid (ascites) from pancreatic cancer patients ([3]; pancreatic cancer cell lines): effectively blocked
–,7.70,"CN(CC1CCC1)C(=O)OCc1c(-c2ccc(O[C@H]3CCC[C@H](C(=O)O)C3)c(C#N)n2)nnn1C [Example 292, (1S,3S)-3-((2-cyano-6-(5-((((cyclobutylmethyl)(methyl)carbamoyl)oxy)methyl)-1-methyl-1H-1,2,3-triazol-4-yl)pyridin-3-yl)oxy)cyclohexane-1-carboxylic acid]",–
6.49,–,"Cc1nc(-c2nnn(C)c2COC(=O)N2CCCC2C(F)(F)F)ccc1O[C@H]1CCC[C@H](C(=O)O)C1 (mixture of isomers) [Example 154, (1S,3S)-3-((2-methyl-6-(1-methyl-5-(((2-(trifluoromethyl)pyrrolidine-1-carbonyl)oxy)methyl)-1H-1,2,3-triazol-4-yl)pyridin-3-yl)oxy)cyclohexane-1-carboxylic acid]",–
7.44,–,"CCCC(C)N(C)C(=O)OCc1c(-c2ccc(O[C@H]3CCC[C@H](C(=O)O)C3)c(C)n2)nnn1C (mixture of isomers) [Example 31, (1S,3S)-3-((2-methyl-6-(1-methyl-5-(((methyl(pentan-2-yl)carbamoyl)oxy)methyl)-1H-1,2,3-triazol-4-yl)pyridin-3-yl)oxy)cyclohexane-1-carboxylic acid]",–
–,–,C[C@@H](N)[C@H]1CC[C@H](C(=O)Nc2ccncc2)CC1 [Example Y-27632],allodynia and hyperalgesia (nerve-injured mice): completely abolished
–,–,"Cn1nnc(-c2ccc(O[C@H]3CCC[C@H](C(=O)O)C3)cn2)c1COC(=O)N1CC2(CCC2)C1 [Example 176, (1S,3S)-3-((6-(5-(((2-azaspiro[3.3]heptane-2-carbonyl)oxy)methyl)-1-methyl-1H-1,2,3-triazol-4-yl)pyridin-3-yl)oxy)cyclohexane-1-carboxylic acid]",pIC50 (human LPA1; human LPA1): 6.40
7.49,–,CN(C(=O)OCc1c(-c2ccc(O[C@H]3CCC[C@](F)(C(=O)O)C3)cn2)nnn1C)C1CCCC1 (racemic) [Example 89],–
–,6.93,"COCc1nc(-c2nnn(C)c2COC(=O)N(C)C2CCCC2)ccc1O[C@H]1CCC[C@H](C(=O)O)C1 [Example 287, (1S,3S)-3-((6-(5-(((cyclopentyl(methyl)carbamoyl)oxy)methyl)-1-methyl-1H-1,2,3-triazol-4-yl)-2-(methoxymethyl)pyridin-3-yl)oxy)cyclohexane-1-carboxylic acid]",–
–,7.68,"CN(CC1CC1)C(=O)OCc1c(-c2ccc(O[C@H]3CCC[C@H](C(=O)O)C3)c(C(F)F)n2)nnn1C [Example 279, (1S,3S)-3-((6-(5-((((cyclopropylmethyl)(methyl)carbamoyl)oxy)methyl)-1-methyl-1H-1,2,3-triazol-4-yl)-2-(difluoromethyl)pyridin-3-yl)oxy)cyclohexane-1-carboxylic acid]",–
–,8.70,"CN(Cc1ccccc1)C(=O)OCc1c(-c2ccc(O[C@H]3CCC[C@H](C(=O)O)C3)c(C#N)n2)nnn1C [Example 290, (1S,3S)-3-((6-(5-(((benzyl(methyl)carbamoyl)oxy)methyl)-1-methyl-1H-1,2,3-triazol-4-yl)-2-cyanopyridin-3-yl)oxy)cyclohexane-1-carboxylic acid]",–
–,7.40,"CCCCN(C)C(=O)OCc1c(-c2cnc(O[C@H]3CCC[C@H](C(=O)O)C3)cn2)nnn1C [Example 212, (1S,3S)-3-((5-(5-(((butyl(methyl)carbamoyl)oxy)methyl)-1-methyl-1H-1,2,3-triazol-4-yl)pyrazin-2-yl)oxy)cyclohexane-1-carboxylic acid]",–
–,7.12,"Cc1nc(-c2nnn(C)c2COC(=O)N(C)CC2(C)CC2)ccc1O[C@H]1CCC[C@H](C(=O)O)C1 [Example 263, (1S,3S)-3-((2-methyl-6-(1-methyl-5-(((methyl((1-methylcyclopropyl)methyl)carbamoyl)oxy)methyl)-1H-1,2,3-triazol-4-yl)pyridin-3-yl)oxy)cyclohexane-1-carboxylic acid]",–
7.39,–,"CN(CCC1CC1)C(=O)OCc1c(-c2ccc(O[C@H]3CCC[C@H](C(=O)O)C3)cc2)nnn1C (racemic) [Example 55, (rac)-trans-3-(4-(5-((((2-cyclopropylethyl)(methyl)carbamoyl)oxy)methyl)-1-methyl-1H-1,2,3-triazol-4-yl)phenoxy)cyclohexane-1-carboxylic acid]",–
7.31,–,"Cc1nc(-c2nnn(C)c2COC(=O)N(C)CCC(F)(F)F)ccc1O[C@H]1CCC[C@H](C(=O)O)C1 [Example 101, (1S,3S)-3-((2-methyl-6-(1-methyl-5-(((methyl(3,3,3-trifluoropropyl)carbamoyl)oxy)methyl)-1H-1,2,3-triazol-4-yl)pyridin-3-yl)oxy)cyclohexane-1-carboxylic acid]",–
–,–,"CC(C)=CCN(C)C(=O)OCc1c(-c2ccc(O[C@H]3CCC[C@@H](C(=O)O)C3)c(C)n2)nnn1C [Example 172, (1R,3S)-3-((2-methyl-6-(1-methyl-5-(((methyl(3-methylbut-2-en-1-yl)carbamoyl)oxy)methyl)-1H-1,2,3-triazol-4-yl)pyridin-3-yl)oxy)cyclohexane-1-carboxylic acid]",pIC50 (human LPA1; human LPA1): 6.51
–,7.08,"CN(C(=O)OCc1c(-c2cnc(O[C@H]3CCC[C@H](C(=O)O)C3)cn2)nnn1C)C1CCCC1 [Example 215, (1S,3S)-3-((5-(5-(((cyclopentyl(methyl)carbamoyl)oxy)methyl)-1-methyl-1H-1,2,3-triazol-4-yl)pyrazin-2-yl)oxy)cyclohexane-1-carboxylic acid]",–
–,7.33,"CCc1nc(-c2nnn(C)c2COC(=O)N2CCC3(CC3)C2)ccc1O[C@H]1CCC[C@H](C(=O)O)C1 [Example 211, (1S,3S)-3-((6-(5-(((5-azaspiro[2.4]heptane-5-carbonyl)oxy)methyl)-1-methyl-1H-1,2,3-triazol-4-yl)-2-ethylpyridin-3-yl)oxy)cyclohexane-1-carboxylic acid]",–
–,6.83,"Cc1nc(-c2nnn(C)c2COC(=O)N(C)CC2CC2)cnc1O[C@H]1CCC[C@H](C(=O)O)C1 [Example 220, (1S,3S)-3-((5-(5-((((cyclopropyl-methyl)(methyl)carbamoyl)oxy)methyl)-1-methyl-1H-1,2,3-triazol-4-yl)-3-methyl-pyrazin-2-yl)oxy)cyclohexane-1-carboxylic acid]",–
7.49,–,Cc1nc(-c2nnn(C)c2COC(=O)N(C)C2CCCC2)ccc1O[C@H]1CCC[C@](F)(C(=O)O)C1 (racemic) [Example 88],–
–,7.24,"CCC(F)CN(C)C(=O)OCc1c(-c2ccc(O[C@H]3CCC[C@H](C(=O)O)C3)c(C)n2)nnn1C (mixture of isomers) [Example 255, (1S,3S)-3-((6-(5-((((2-fluorobutyl)(methyl)carbamoyl)oxy)methyl)-1-methyl-1H-1,2,3-triazol-4-yl)-2-methylpyridin-3-yl)oxy)cyclohexane-1-carboxylic acid]",–
